Activity calls are given as the source filed them. The rule behind the calls is not given here.
System: DNA
Experiment: Induction of DNA intercalation using nucleosomal DNA (unknown origin) up to 1 mM by CYBR Green dye-based fluorescence assay
Type: nucleic-acid assay

Activity: inactive
Compound: O=C(O)c1cc(Cc2ccc(O)c(C(=O)O)c2)ccc1O

Reference: ChEMBL document CHEMBL4422660, “Synthesis of NSC 106084 and NSC 14778 and evaluation of their DNMT inhibitory activity” (Bioorg Med Chem Lett, 2019)
